What was measured:
Assay type in all cases: in vivo
[1] = test system: AMAPA; experiment: Pre-emergence biological efficacy; settings: Amaranthus palmeri, 312 h, evaluated after 13 days, read-out: damage to plant (100=total damage to plant; 0=no damage to plant)
Procedure: (§1) Seeds of weeds and/or crops were sown in standard soil in pots. After cultivation for one day under controlled conditions in a glasshouse (at 24/19° C., day/night; 16 hours light), the plants were sprayed with an aqueous spray solution derived from the formulation of the technical active ingredient in a small amount of acetone and a special solvent and emulsifier mixture referred to as IF50 (11.12% Emulsogen EL360 TM+44.44% N-methylpyrrolidone+44.44% Dowanol DPM glycol ether), to create a 50g/l solution which was then diluted using 0.2% Genapol XO80 as diluent to give the desired final dose of test compound.
(§2) The test plants were then grown under controlled conditions in the glasshouse (at 24/18° C., day/night; 15 hours light; 50% humidity) and watered twice daily. After 13 days the test was evaluated (100=total damage to plant; 0=no damage to plant).

[2] = test system: ECHCG; experiment: Pre-emergence biological efficacy; settings: Echinochloa crus-galli, 312 h, evaluated after 13 days, read-out: damage to plant (100=total damage to plant; 0=no damage to plant)
Procedure: as §1, §2

[3] = test system: EPHHL; experiment: Pre-emergence biological efficacy; settings: Euphorbia heterophylla, 312 h, evaluated after 13 days, read-out: damage to plant (100=total damage to plant; 0=no damage to plant)
Procedure: as §1, §2

[4] = test system: IPOHE; experiment: Pre-emergence biological efficacy; settings: Ipomoea hederacea, 312 h, evaluated after 13 days, read-out: damage to plant (100=total damage to plant; 0=no damage to plant)
Procedure: as §1, §2

[5] = test system: LOLPE; experiment: Pre-emergence biological efficacy; settings: Lolium perenne, 312 h, evaluated after 13 days, read-out: damage to plant (100=total damage to plant; 0=no damage to plant)
Procedure: as §1, §2

[6] = test system: SETFA; experiment: Pre-emergence biological efficacy; settings: Setaria faberi, 312 h, evaluated after 13 days, read-out: damage to plant (100=total damage to plant; 0=no damage to plant)
Procedure: as §1, §2

[7] = test system: AMAPA; experiment: Post-emergence biological efficacy; settings: Amaranthus palmeri, 312 h, evaluated after 13 days, read-out: damage to plant (100=total damage to plant; 0=no damage to plant)
Procedure: as §1, with “14 days” for “one day”
(§3) The test plants were then grown under controlled conditions in the glasshouse (at 24/18° C., day/night; 15 hours light; 50% humidity)and watered twice daily. After 13 days the test was evaluated (100=total damage to plant; 0=no damage to plant).

[8] = test system: CHEAL; experiment: Post-emergence biological efficacy; settings: Chenopodium album, 312 h, evaluated after 13 days, read-out: damage to plant (100=total damage to plant; 0=no damage to plant)
Procedure: as §1, with “14 days” for “one day”
as §3

[9] = test system: DIGSA; experiment: Post-emergence biological efficacy; settings: Digitaria sanguinalis, 312 h, evaluated after 13 days, read-out: damage to plant (100=total damage to plant; 0=no damage to plant)
Procedure: as §1, with “14 days” for “one day”
as §3

[10] = test system: ECHCG; experiment: Post-emergence biological efficacy; settings: Echinochloa crus-galli, 312 h, evaluated after 13 days, read-out: damage to plant (100=total damage to plant; 0=no damage to plant)
Procedure: as §1, with “14 days” for “one day”
as §3

[11] = test system: ELEIN; experiment: Post-emergence biological efficacy; settings: 312 h, evaluated after 13 days, read-out: damage to plant (100=total damage to plant; 0=no damage to plant)
Procedure: as §1, with “14 days” for “one day”
as §3

[12] = test system: EPHHL; experiment: Post-emergence biological efficacy; settings: Euphorbia heterophylla, 312 h, evaluated after 13 days, read-out: damage to plant (100=total damage to plant; 0=no damage to plant)
Procedure: as §1, with “14 days” for “one day”
as §3

[13] = test system: IPOHE; experiment: Post-emergence biological efficacy; settings: Ipomoea hederacea, 312 h, evaluated after 13 days, read-out: damage to plant (100=total damage to plant; 0=no damage to plant)
Procedure: as §1, with “14 days” for “one day”
as §3

[14] = test system: LOLPE; experiment: Post-emergence biological efficacy; settings: Lolium perenne, 312 h, evaluated after 13 days, read-out: damage to plant (100=total damage to plant; 0=no damage to plant)
Procedure: as §1, with “14 days” for “one day”
as §3

[15] = test system: SETFA; experiment: Post-emergence biological efficacy; settings: Setaria faberi, 312 h, evaluated after 13 days, read-out: damage to plant (100=total damage to plant; 0=no damage to plant)
Procedure: as §1, with “14 days” for “one day”
as §3

Row | Compound | pest or weed control at 250 g/ha [1] [%] | pest or weed control at 250 g/ha [2] [%] | pest or weed control at 250 g/ha [3] [%] | pest or weed control at 250 g/ha [4] [%] | pest or weed control at 250 g/ha [5] [%] | pest or weed control at 250 g/ha [6] [%] | pest or weed control at 250 g/ha [7] [%] | pest or weed control at 250 g/ha [8] [%] | pest or weed control at 250 g/ha [9] [%] | pest or weed control at 250 g/ha [10] [%] | pest or weed control at 250 g/ha [11] [%] | pest or weed control at 250 g/ha [12] [%] | pest or weed control at 250 g/ha [13] [%] | pest or weed control at 250 g/ha [14] [%] | pest or weed control at 250 g/ha [15] [%]
1 | CCOC(=O)C1(C)CC(c2cc(-c3ncc(F)cc3F)c(F)cc2Cl)=NO1 (stereo not drawn) [Compound 1-551, Ethyl 3-[2-chloro-5-(3,5-difluoro-2-pyridyl)-4-fluoro-phenyl]-5-methyl-4H-isoxazole-5-carboxylate] | 80 | 80 | 50 | 60 | 50 | 90 | 100 | 100 | 100 | 100 | 100 | 90 | 100 | 100 | 100
2 | CCOC(=O)C1(C)CC(c2cc(-c3ncc(C(F)(F)F)cc3Cl)ccc2Cl)=NO1 (stereo not drawn) [Compound 1-99, Ethyl 3-[2-chloro-5-[3-chloro-5-(trifluoromethyl)-2-pyridyl]-phenyl]-5-methyl-4H-isoxazole-5-carboxylate] | 100 | 100 | 100 | 100 | 80 | 100 | 100 | 100 | 100 | 100 | 100 | 100 | 100 | 100 | 100
3 | CCOC(=O)C1(C)CC(c2cc(-c3ccc(OC)nn3)c(F)cc2Cl)=NO1 (stereo not drawn) [Compound 1-703, Ethyl 3-[2-chloro-4-fluoro-5-(6-methoxypyridazin-3-yl)phenyl]-5-methyl-4H-isoxazole-5-carboxylate] | – | 0 | 0 | 0 | 0 | 0 | 100 | 100 | 70 | 80 | 70 | 100 | 60 | 70 | 70
4 | CCOC(=O)C1(C)CC(c2cc(-c3c(Cl)cc(C(F)(F)F)c[n+]3[O-])ccc2Cl)=NO1 (stereo not drawn) [Compound 1-663, Ethyl 3-[2-chloro-5-(3-chloro-1-oxido-5-trifluoromethyl-2-pyridyl)-phenyl]-5-methyl-4H-isoxazole-5-carboxylate] | 100 | 30 | 90 | 90 | 50 | 40 | 100 | 100 | 100 | 100 | 100 | 100 | 100 | 100 | 100
5 | CCOC(=O)C1(C)CC(c2cc(-c3cc(C(F)(F)F)ccn3)c(F)cc2Cl)=NO1 (stereo not drawn) [Compound 1-319, Ethyl 3-[2-chloro-4-fluoro-5-[4-(trifluoromethyl)-2-pyridyl]-phenyl]-5-methyl-4H-isoxazole-5-carboxylate] | 40 | 30 | 20 | 0 | 10 | 0 | 80 | 90 | 80 | 60 | 40 | 80 | 100 | 10 | 70
6 | CCOC(=O)C1(C)CC(c2cc(-c3ncc(Cl)cc3Cl)c(F)cc2Cl)=NO1 (stereo not drawn) [Compound 1-115, Ethyl 3-[2-chloro-5-(3,5-dichloro-2-pyridyl)-4-fluoro-phenyl]-5-methyl-4H-isoxazole-5-carboxylate] | 100 | 80 | 100 | 80 | 50 | 60 | 100 | 100 | 100 | 100 | 100 | 100 | 100 | 100 | 100
7 | CCOC(=O)C1(C)CC(c2cc(-c3cnc(C(F)(F)F)cn3)c(F)cc2Cl)=NO1 (stereo not drawn) [Compound 1-751, Ethyl 3-[2-chloro-4-fluoro-5-[5-(trifluoromethyl)pyrazin-2-yl]phenyl]-5-methyl-4H-isoxazole-5-carboxylate] | 20 | 50 | – | 50 | 20 | 40 | 100 | 100 | 100 | 100 | 100 | 100 | 100 | 70 | 100
8 | CCOC(=O)C1(C)CC(c2cc(-c3cc(C(F)(F)F)cnc3Br)c(F)cc2Cl)=NO1 (stereo not drawn) [Compound 1-835, Ethyl 3-[5-[2-bromo-5-(trifluoromethyl)-3-pyridyl]-2-chloro-4-fluoro-phenyl]-5-methyl-4H-isoxazole-5-carboxylate] | 70 | 0 | 0 | 10 | 0 | 0 | – | – | – | – | – | – | – | – | –
9 | CCOC(=O)C1(C)CC(c2cc(-c3ccnc(Cl)c3Cl)c(F)cc2Cl)=NO1 (stereo not drawn) [Compound 1-535, Ethyl 3-[2-chloro-5-(2,3-dichloro-4-pyridyl)-4-fluoro-phenyl]-5-methyl-4H-isoxazole-5-carboxylate] | – | 10 | 0 | 40 | 0 | 40 | 100 | 100 | 90 | 80 | 80 | 100 | 100 | 50 | 100

From patent US20240124432A1, “HERBICIDAL COMPOUNDS” (SYNGENTA CROP PROTECTION AG, priority 2020, published 2024)
